The assay concerns influenza virus genome replication and transcription in yeast cells. The assay is classed as cell-based.

Molecules are shown by their SMILES.

Take `C[C@@H]1C[C@@H]([C@H](O)CC2CC(=O)NC(=O)C2)C(=O)[C@@H](C)C1` [cycloheximide]: the “synthesis level of viral RNAs” value is listed as “markedly reduced”.

Values taken from patent US20100304375A1, “Influenza Virus Genome Replication and Transcription System in Yeast Cells” (UNIVERSITY OF TSUKUBA, priority 2007, published 2010).
